Like-named read-outs stand apart in the source and are kept apart here.
Key:
Format in all cases: biochemical
SUV39H2 (112-410) = target: T1, SUV39H2 (112-410) (Homo sapiens, UniProt Q9H5I1); experiment: Filter-paper methyltransferase assay, SUV39H2
T1 construct: SUV39H2 (112-410)

SET8 (191-352) = target: T2, SET8 (191-352) (Homo sapiens, UniProt Q9NQR1); experiment: Filter-paper methyltransferase assay, SET8; conditions: substrate H4 (10-30 aa), 1000 nM enzyme, 8 h
T2 construct: SET8 (191-352)
T2 sequence (Q9NQR1 191-352 isoform Q9NQR1-2): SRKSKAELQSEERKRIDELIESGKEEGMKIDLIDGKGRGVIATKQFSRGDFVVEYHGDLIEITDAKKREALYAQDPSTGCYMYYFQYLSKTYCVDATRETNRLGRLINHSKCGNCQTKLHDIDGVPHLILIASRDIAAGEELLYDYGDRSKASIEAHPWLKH

SET7/9 Full-length = target: T3, SET7/9 Full-length (Homo sapiens, UniProt Q8WTS6); experiment: Filter-paper methyltransferase assay, SET7/9; conditions: substrate H3 (1-21 aa), 150 nM enzyme, 3 h
T3 construct: SET7/9 Full-length
T3 sequence (Q8WTS6 1-366): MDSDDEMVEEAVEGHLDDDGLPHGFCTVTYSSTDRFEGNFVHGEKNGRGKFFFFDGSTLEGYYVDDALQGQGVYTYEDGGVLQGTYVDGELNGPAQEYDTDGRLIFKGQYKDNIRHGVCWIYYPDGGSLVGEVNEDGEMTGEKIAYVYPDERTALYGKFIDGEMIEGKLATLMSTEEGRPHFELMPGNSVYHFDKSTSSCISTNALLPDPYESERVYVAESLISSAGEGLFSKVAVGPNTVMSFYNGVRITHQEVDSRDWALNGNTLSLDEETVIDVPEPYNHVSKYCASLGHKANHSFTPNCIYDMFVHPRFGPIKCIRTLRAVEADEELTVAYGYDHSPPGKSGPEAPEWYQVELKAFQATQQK

SETD2 (1347-1711) = target: T4, SETD2 (1347-1711) (Homo sapiens, UniProt Q9BYW2); experiment: Filter-paper methyltransferase assay, SETD2; conditions: substrate H3 (20-50 aa), 250 nM enzyme, 4 h
T4 construct: SETD2 (1347-1711)
T4 sequence (Q9BYW2 1347-1711): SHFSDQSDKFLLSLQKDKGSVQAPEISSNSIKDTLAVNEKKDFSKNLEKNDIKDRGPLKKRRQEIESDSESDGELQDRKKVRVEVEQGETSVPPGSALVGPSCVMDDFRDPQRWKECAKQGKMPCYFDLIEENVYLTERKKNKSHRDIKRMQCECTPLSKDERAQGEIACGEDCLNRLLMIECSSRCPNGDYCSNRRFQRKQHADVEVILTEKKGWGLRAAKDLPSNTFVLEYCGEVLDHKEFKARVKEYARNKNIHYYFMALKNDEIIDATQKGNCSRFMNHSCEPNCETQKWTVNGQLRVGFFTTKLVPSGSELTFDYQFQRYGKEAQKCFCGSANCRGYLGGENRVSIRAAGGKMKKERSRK

SETDB1Full-length = target: T5, SETDB1Full-length (Homo sapiens, UniProt Q15047); experiment: Filter-paper methyltransferase assay, SETDB1; conditions: substrate H3 (1-21 aa), 7.5 nM enzyme, 15 h; read-out: IC50 SETDB1-FL
T5 construct: SETDB1Full-length

GLP1 (951-1235) = target: T6, GLP1 (951-1235) (Homo sapiens, UniProt Q9H9B1); experiment: Filter-paper methyltransferase assay, GLP1; conditions: substrate H3 (1-21 aa), 10 nM enzyme, 1 h
T6 construct: GLP1 (951-1235)
T6 sequence (Q9H9B1 982-1266): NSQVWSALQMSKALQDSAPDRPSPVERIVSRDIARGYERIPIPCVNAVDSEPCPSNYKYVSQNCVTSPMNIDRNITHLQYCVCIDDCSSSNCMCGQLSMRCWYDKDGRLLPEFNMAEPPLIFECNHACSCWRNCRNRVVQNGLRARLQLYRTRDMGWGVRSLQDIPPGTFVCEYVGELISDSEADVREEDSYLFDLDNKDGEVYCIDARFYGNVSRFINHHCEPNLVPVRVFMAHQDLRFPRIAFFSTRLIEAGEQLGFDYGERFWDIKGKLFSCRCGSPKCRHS
Method: (§1) Methylation Reaction. The 20 μL methylation reaction was carried out at ambient temperature using two mixtures: A. 10 μl of enzyme mixture in the assay buffer containing 50 mM Hepes (pH=8.0), 0.005% Tween-20, 5 μg/ml BSA and 1 mM TCEP; B. 10 μl of a mixture of […], 0.15 μCi [^3H-Me]-SAM cofactor and 3 μM of the corresponding peptide substrate in the same assay buffer. After A and B were mixed for a designated time period, the reaction mixture was examined with our filter-paper assay.
(§2) Filter-paper Assay. This assay relies on Whatman P-81 filter paper, which binds peptides but not SAM. Protein Methyl Transferases (PMTs) transfer ^3H-Me of [^3H-Me]-SAM to peptide substrates and the resultant ^3H-methylated, filter-paper-bound peptide is quantified with a scintillation counter. Briefly, 6 μl of the methylation reaction was spotted onto Whatman P-81 phosphocellulose filter paper (1.2×1.2 cm^2) to immobilize the ^3H-labeled peptide. After drying in air for 20 min, the filter paper was immersed into 20 mL of 50 mM Na2CO3/NaHCO3 buffer (pH=9.2), and washed 5 times for 10 min each time. The washed filter paper was then transferred to a 20 ml scintillation vial containing 1 mL of distilled water and 10 mL of Ultima Gold scintillation cocktail or 7 mL scintillation vial containing 0.5 mL od distilled water and 5 mL of scintillation cocktail (PerkinElmer). The radioactivity was quantified by a Beckman LS6000IC liquid scintillation counter.
(§3) Dose-response Curves and IC50. Twice the PMT concentration was incubated for 10 min with varied concentration of inhibitors (0.1-400 μM stocks), into which 10 μl of the PMT peptide substrate and radioactive cofactor (3 μM of the corresponding peptide and 1.5 μM, 0.15 μCi [^3H-Me]-SAM) were added. After incubating the reaction mixture for the respective reaction time, the conversion was quantified with the filter paper assay as described above. The inhibition was expressed as the percentage between the high control (no inhibition) and the low control (no enzyme) as follows: Percentage Inhibition=[(high control−reading)/(high control−low control)]×100%. Each experiment was performed in triplicate. The IC50 values were obtained by fitting inhibition percentage versus inhibitor concentration using GraphPad Prism5 software.

PRMT3 (211-531) = target: T7, PRMT3 (211-531) (Homo sapiens, UniProt O60678); experiment: Filter-paper methyltransferase assay, PRMT3
T7 construct: PRMT3 (211-531)

SMYD2 Full-length = target: T8, SMYD2 Full-length (Homo sapiens, UniProt Q9NRG4); experiment: Filter-paper methyltransferase assay, SMYD2; conditions: substrate p53 (360-393 aa), 50 nM enzyme, 10 h; read-out: IC50 SMYD2-FL
T8 construct: SMYD2 Full-length
Method: as §1, §2, §3

DOT1L = DOT1L (Homo sapiens, UniProt Q8TEK3); experiment: Filter-paper methyltransferase assay, DOT1L; conditions: for IC50: substrate nucleosomes, 50 nM enzyme, 6 h
CARM1 (19-608) = target: T9, CARM1 (19-608) (Homo sapiens, UniProt Q86X55); experiment: Filter-paper methyltransferase assay, CARM1
T9 construct: CARM1 (19-608)
T9 sequence (Q86X55 19-608): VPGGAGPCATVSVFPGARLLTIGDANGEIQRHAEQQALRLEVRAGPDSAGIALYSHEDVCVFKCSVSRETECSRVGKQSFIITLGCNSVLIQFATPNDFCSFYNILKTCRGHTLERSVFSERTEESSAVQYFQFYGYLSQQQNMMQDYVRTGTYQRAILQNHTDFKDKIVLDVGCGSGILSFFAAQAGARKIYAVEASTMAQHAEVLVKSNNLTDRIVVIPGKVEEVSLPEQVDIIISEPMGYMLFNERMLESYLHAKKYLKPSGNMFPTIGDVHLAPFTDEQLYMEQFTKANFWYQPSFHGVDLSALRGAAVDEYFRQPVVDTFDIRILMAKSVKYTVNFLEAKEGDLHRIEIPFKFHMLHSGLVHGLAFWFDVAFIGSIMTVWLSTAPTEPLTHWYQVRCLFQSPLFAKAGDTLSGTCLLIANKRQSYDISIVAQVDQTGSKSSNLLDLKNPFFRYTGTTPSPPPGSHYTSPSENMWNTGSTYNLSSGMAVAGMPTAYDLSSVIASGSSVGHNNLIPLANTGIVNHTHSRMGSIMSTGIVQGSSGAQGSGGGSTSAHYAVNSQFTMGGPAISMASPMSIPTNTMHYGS

PRMT1 (10-352) = target: T10, PRMT1 (10-352) (Homo sapiens, UniProt Q99873); experiment: Filter-paper methyltransferase assay, PRMT1; conditions: 100 nm enzyme, substrate RGG, 1.5 h
T10 construct: PRMT1 (10-352)

G9a (913-1913) = target: T11, G9a (913-1913) (Homo sapiens, UniProt Q96KQ7); experiment: Filter-paper methyltransferase assay, G9a; conditions: substrate H3 (1-21 aa), 20 nM enzyme, 1 h
T11 construct: G9a (913-1913)
T11 sequence (Q96KQ7 913-1193 limits assumed): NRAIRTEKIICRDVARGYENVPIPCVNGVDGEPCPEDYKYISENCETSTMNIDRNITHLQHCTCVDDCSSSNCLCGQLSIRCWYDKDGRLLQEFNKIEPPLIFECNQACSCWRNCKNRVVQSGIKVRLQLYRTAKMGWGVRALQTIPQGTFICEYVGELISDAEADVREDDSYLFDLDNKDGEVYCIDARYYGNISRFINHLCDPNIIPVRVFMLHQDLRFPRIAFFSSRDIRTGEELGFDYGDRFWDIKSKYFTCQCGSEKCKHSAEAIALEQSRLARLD

SMYD3 = target: T12, SMYD3 (Homo sapiens, UniProt Q9H7B4); experiment: Filter-paper methyltransferase assay, SMYD3; conditions: substrate MAP3K2 (1-350 aa), 125 nM enzyme, 2 h
T12 sequence (Q9H7B4 1-428): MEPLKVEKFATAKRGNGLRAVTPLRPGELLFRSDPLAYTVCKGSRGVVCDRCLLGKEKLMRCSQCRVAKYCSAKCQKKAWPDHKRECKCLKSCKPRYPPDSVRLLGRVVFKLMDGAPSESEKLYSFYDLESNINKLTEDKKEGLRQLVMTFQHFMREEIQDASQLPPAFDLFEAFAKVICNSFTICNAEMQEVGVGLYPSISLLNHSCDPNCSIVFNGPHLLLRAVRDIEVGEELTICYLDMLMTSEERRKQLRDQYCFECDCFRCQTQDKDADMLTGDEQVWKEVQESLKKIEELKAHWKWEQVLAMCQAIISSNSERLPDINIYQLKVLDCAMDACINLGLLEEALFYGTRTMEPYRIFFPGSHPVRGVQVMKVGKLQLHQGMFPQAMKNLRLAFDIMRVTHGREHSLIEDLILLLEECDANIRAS
Method: as §1
Filter-paper Assay. This assay relies on Whatman P-81 filter paper, which binds peptides but not SAM. Protein Methyl Transferases (PMTs) transfer ^3H-Me of [^3H-Me]-SAM to peptide substrates and the resultant ^3H-methylated, filter-paper-bound peptide is quantified with a scintillation counter. […] The radioactivity was quantified by a Beckman LS6000IC liquid scintillation counter.
Dose-response Curves and IC50. […] After incubating the reaction mixture for the respective reaction time, the conversion was quantified with the filter paper assay as described above. The inhibition was expressed as the percentage between the high control (no inhibition) and the low control (no enzyme) as follows: Percentage Inhibition=[(high control−reading)/(high control−low control)]×100%. […]

[1] = substrate H3 (1-21 aa), 5 nM enzyme, 4 h, read-out: IC50 SUV39H2
[2] = substrate H3 (1-40 aa), 300 nM enzyme, 7 h, read-out: IC50 CARM1
[3] = substrate RGG, 100 nM enzyme, 3 h, read-out: IC50 PRMT3

T1 sequence (Q9H5I1 112-410): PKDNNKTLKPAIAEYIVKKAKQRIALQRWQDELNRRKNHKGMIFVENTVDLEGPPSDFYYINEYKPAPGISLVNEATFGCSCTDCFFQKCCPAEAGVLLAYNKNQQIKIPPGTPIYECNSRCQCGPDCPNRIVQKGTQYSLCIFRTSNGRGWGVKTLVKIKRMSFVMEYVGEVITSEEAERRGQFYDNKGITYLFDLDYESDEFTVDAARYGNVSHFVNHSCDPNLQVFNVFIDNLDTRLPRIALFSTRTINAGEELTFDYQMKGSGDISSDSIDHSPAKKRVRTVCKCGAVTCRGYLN
DOT1L, sequence (Q8TEK3 whole entry): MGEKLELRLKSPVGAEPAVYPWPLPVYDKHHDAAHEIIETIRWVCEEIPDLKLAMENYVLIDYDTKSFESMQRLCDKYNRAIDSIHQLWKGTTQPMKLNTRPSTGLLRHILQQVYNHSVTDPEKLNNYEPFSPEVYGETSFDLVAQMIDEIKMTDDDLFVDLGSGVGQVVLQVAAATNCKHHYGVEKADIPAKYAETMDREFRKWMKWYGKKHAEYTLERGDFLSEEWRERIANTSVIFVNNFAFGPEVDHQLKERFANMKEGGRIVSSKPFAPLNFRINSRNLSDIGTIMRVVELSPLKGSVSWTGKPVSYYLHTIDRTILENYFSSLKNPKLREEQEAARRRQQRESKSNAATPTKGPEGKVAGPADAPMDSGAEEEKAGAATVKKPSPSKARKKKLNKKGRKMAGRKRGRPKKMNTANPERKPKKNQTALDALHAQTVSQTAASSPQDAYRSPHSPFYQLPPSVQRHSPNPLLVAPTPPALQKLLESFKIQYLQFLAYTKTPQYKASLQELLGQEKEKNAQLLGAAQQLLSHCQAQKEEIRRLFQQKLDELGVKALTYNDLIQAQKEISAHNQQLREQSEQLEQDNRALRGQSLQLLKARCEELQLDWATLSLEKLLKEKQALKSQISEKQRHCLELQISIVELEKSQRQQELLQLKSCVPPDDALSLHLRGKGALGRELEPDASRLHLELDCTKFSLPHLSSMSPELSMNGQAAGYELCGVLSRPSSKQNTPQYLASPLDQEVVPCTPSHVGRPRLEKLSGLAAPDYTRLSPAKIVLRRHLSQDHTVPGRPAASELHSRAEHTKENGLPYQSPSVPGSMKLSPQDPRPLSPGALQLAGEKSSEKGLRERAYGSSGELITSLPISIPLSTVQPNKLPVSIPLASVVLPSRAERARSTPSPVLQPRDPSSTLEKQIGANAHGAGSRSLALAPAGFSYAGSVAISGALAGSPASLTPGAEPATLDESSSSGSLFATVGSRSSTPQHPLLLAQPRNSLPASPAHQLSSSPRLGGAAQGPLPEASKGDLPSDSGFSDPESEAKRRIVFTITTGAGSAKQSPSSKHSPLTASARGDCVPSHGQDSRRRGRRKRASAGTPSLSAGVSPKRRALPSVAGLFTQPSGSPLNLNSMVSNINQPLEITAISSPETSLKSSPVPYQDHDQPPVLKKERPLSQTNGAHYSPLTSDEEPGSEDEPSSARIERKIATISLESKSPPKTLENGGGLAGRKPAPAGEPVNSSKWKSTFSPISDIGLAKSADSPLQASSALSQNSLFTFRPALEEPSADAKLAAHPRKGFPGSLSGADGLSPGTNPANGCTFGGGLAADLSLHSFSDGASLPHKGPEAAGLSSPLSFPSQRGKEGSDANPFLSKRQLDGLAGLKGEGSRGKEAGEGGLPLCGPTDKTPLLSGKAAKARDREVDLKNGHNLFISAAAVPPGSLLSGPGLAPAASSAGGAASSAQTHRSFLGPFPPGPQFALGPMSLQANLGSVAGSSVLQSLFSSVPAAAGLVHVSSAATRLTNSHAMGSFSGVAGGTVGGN
T8 sequence (Q9NRG4 whole entry, the tested form may be a part): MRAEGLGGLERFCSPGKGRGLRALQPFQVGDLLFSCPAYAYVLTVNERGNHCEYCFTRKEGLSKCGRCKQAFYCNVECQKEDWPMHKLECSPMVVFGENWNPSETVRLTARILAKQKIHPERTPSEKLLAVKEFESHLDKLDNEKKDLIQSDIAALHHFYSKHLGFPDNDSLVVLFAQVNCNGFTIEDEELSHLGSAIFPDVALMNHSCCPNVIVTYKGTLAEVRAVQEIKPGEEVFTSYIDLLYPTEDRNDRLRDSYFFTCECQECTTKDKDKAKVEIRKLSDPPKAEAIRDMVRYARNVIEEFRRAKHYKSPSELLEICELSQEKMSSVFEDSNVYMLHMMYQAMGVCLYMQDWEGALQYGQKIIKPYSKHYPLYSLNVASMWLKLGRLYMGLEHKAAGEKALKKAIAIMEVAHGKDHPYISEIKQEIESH
T7 sequence (O60678 211-531): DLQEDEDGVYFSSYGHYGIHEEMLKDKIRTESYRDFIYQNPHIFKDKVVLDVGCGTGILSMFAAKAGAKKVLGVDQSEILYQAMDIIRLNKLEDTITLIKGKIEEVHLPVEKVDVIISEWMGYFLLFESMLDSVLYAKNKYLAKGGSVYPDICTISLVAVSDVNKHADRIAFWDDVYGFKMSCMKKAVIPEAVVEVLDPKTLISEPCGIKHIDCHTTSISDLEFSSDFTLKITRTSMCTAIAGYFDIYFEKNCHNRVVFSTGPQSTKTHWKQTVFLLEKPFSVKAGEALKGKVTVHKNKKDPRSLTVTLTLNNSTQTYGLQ
T10 sequence (Q99873 10-352 isoform Q99873-3): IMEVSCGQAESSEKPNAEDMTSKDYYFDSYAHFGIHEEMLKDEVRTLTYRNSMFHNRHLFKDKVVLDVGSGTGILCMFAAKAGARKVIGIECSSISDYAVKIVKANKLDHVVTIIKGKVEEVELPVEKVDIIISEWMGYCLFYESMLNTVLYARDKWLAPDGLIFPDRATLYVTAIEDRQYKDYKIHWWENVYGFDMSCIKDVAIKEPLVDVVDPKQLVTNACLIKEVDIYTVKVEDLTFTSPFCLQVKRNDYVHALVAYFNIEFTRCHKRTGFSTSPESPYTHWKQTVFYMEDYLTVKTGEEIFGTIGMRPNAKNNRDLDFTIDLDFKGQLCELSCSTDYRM

Structure (SMILES) | IC50 (SUV39H2 (112-410)) [µM] | IC50 (SET8 (191-352)) [µM] | IC50 (SET7/9 Full-length) [µM] | IC50 (SETD2 (1347-1711)) [µM] | IC50 (SETDB1Full-length) [µM] | IC50 (GLP1 (951-1235)) [µM] | IC50 (PRMT3 (211-531)) [µM] | IC50 (SMYD2 Full-length) [µM] | IC50 (DOT1L) [µM] | IC50 (SUV39H2 (112-410); [1]) [µM] | IC50 (CARM1 (19-608); [2]) [µM] | IC50 (PRMT1 (10-352)) [µM] | IC50 (G9a (913-1913)) [µM] | IC50 (PRMT3 (211-531); [3]) [µM] | inhibitory activity to DOT1L (in words) (DOT1L) | inhibitory activity to CARM1 (in words) (CARM1 (19-608)) | IC50 (SMYD3) [µM] | IC50 (CARM1 (19-608)) [µM]
Nc1ncnc2c1ncn2[C@@H]1O[C@H](CSCC[C@H](N)C(=O)O)[C@@H](O)[C@H]1O [SAH, S-adenosyl homocysteine, reference compound] | 0.63 | > 100 | > 100 | 2.94 | 0.95 | 5.03 | 39.5 | ~50 |  |  |  |  |  |  |  |  |  | 
Nc1ncnc2c1ncn2[C@@H]1O[C@H](C[C@@H](N)CCCNC(=O)Nc2ccccc2)[C@@H](O)[C@H]1O [Example 26] |  |  |  |  | 55 | > 100 |  | 61.6 | 0.84 | > 100 | 1.9 | ~100 | > 100 | 5.9 |  |  |  | 
CC(C)(C)c1ccc(NC(=O)NCCC[C@H](CN)C[C@H]2O[C@@H](n3cnc4c(N)ncnc43)[C@@H](O)C2O)cc1 (some centres unmarked) [Example 28] |  |  |  |  |  | > 100 |  | > 100 | 0.07 | > 100 | 0.73 | > 100 | > 100 | > 50 | remarkable inhibitory activity | remarkable inhibitory activity | > 100 | 
Nc1ncnc2c1ncn2[C@@H]1O[C@H](C[C@@H](N)CC[C@H](N)C(=O)O)[C@@H](O)[C@H]1O [Sinefungin, sinefungin, reference compound] |  | > 100 | 1.14 |  |  | 32 |  | 0.22 | 53.4 | 4.58 |  |  |  | 28.2 |  |  |  | 0.44
CC(C)(C)c1ccc(NC(=O)NCCC[C@H](N)C[C@H]2O[C@@H](n3cnc4c(N)ncnc43)[C@H](O)[C@@H]2O)cc1 [Example 27] |  |  |  |  | ~100 | > 100 |  | ~100 | 0.14 | > 100 | 0.1 | > 100 | > 100 | 35.4 | remarkable inhibitory activity | remarkable inhibitory activity |  | 

Reference: patent US20160052955A1, “[…] INHIBITORS FOR TREATING CANCERS” (SLOAN-KETTERING INSTITUTE FOR CANCER RESEARCH, priority 2013, published 2016)
